{"source": "patent US11944628B2", "about": "“Methods for the use of low-dose immune modulators transiently for treating patients undergoing protein replacement therapy” (Duke University, priority 2017, dated 2024)", "key": {"[1]": {"system": "anti-rhGAA IgG antibodies", "assay": "Anti-rhGAA IgG antibody titers over time (ELISA, confirmed by radioimmunoprecipitation) in Pompe disease patients on ERT with TLD-MTX or on ERT monotherapy (comparators)", "format": "in vivo, human", "procedure": "Methotrexate at 0.4 mg/kg body weight was administered subcutaneously (or orally if subcutaneous administration was not possible) on three consecutive days/MTX cycle/infusion; with the first three ERT infusions (i.e., on Days 0, 14, and 28 for patients infused EOW) for a total of 3 cycles. On the day of ERT infusion, methotrexate was administered 15 minutes (if subcutaneous) or 1 hour (if oral) before infusion initiation and again on the following 2 days. To exemplify the schedule, in a patient receiving ERT infusion EOW, methotrexate was administered on Days 0, 1, and 2 (first cycle); Days 14, 15, and 16 (second cycle), and Days 28, 29, and 30 (third cycle). As stated earlier, the dose and frequency of ERT could be increased at the discretion of the treating physician, based on patients' clinical and IAR status, in which case methotrexate cycles were adjusted accordingly (see FIG. 2 for details).\nAnti-rhGAA IgG antibodies were determined by Sanofi Genzyme (Framingham, MA, USA) using enzyme-linked immunosorbent assays and confirmed using radioimmunoprecipitation as described previously (Kishnani et al. (2006) J. Pediatr. 149:89-97). Antibody analyses were recommended to be performed at Days −1, 28, 56, 84, 112, 140, 168, 196, 224, 252, 280, 308, 336, and 364.\nrhGAA IgG titers were determined over time. Patients were classified into HSAT (≥51,200 on ≥2 occasions at or beyond 6 months on ERT), sustained intermediate titer (SIT) (≥12,800 and <51,200 within the first year of ERT), and low titer (LT; ≤6,400 within the first year of ERT) groups based on the longitudinal anti-rhGAA IgG titers. […] Medians and ranges were determined for baseline, peak, and last titers, although our focus was on longitudinal titers through time because sustained titers affect clinical response.\nThe comparators received rhGAA alone. The GAA variant data and age at ERT initiation were compared with our cohort of TLD-MTX recipients. Immune responses over time were classified into HSAT, SIT, and LT as defined above, and time to seroconversion, peak titers, titers at Weeks 12, 24, and 52 were compared with our present cohort of TLD-MTX recipients."}, "[2]": {"system": "anti-rhGAA IgG antibodies", "conditions": "LOTS, cited from earlier work"}, "[3]": {"system": "anti-rhGAA IgG antibodies", "conditions": "10 LOPD patients, 4 years, annual titers; cited from earlier work"}, "[4]": {"system": "anti-rhGAA IgG antibodies", "conditions": "cited from earlier work"}}, "note": "Where two headings read alike, the source gives them in different places.", "data": [{"substance": "Alglucosidase alfa [ERT monotherapy]", "values": [{"measurement": "Range of peak titers", "setting": "[1]; HSAT comparators (5/37)", "result": "51,200-409,600"}, {"measurement": "Group median last titer", "setting": "[1]; HSAT group of 37 CRIM-positive IOPD comparators, median time on ERT Week 94", "result": "102,400"}, {"measurement": "Median peak titers", "setting": "[1]; HSAT group, IOPD", "result": "204,800 (range, 51,200-409,600)"}, {"measurement": "Median titers (Week 12)", "setting": "[1]; HSAT group, IOPD", "result": "25,600"}, {"measurement": "Median titers (Week 24)", "setting": "[1]; HSAT group, IOPD", "result": "25,600"}, {"measurement": "Median titers (Week 52)", "setting": "[1]; HSAT group, IOPD", "result": "51,200"}, {"measurement": "Seroconversion week (median time to seroconversion)", "setting": "[1]; HSAT group, IOPD", "result": "≤ 4", "unit": "weeks"}, {"measurement": "Percent of patients in HSAT group", "setting": "[1]; HSAT: titers >=51,200 on >=2 occasions at or beyond 6 months on ERT, IOPD", "result": 13.5, "unit": "%"}, {"measurement": "Percent of patients who developed HSAT or SIT", "setting": "[1]; IOPD, comparator group n=37, TLD-MTX group n=14", "result": 32.4, "unit": "%"}, {"measurement": "Range of peak titers", "setting": "[1]; LT comparators (23/37 as printed)", "result": "200-12,800"}, {"measurement": "Group median last titer", "setting": "[1]; LT group of 37 CRIM-positive IOPD comparators, median time on ERT Week 130", "result": 400}, {"measurement": "Median peak titers", "setting": "[1]; LT group, IOPD", "result": "800 (range, 200-12,800)"}, {"measurement": "Median titers (Week 12)", "setting": "[1]; LT group, IOPD", "result": 400}, {"measurement": "Median titers (Week 24)", "setting": "[1]; LT group, IOPD", "result": 400}, {"measurement": "Seroconversion week (median time to seroconversion)", "setting": "[1]; LT group, IOPD", "result": 8, "unit": "weeks"}, {"measurement": "Median titers (Week 52)", "setting": "[1]; LT group, IOPD, seropositive titers <100 deemed 50", "result": 200}, {"measurement": "Percent of patients in LT group", "setting": "[1]; LT: titers <=6,400 within first year of ERT, IOPD", "result": 67.6, "unit": "%"}, {"measurement": "Range of peak titers", "setting": "[1]; SIT (IT) comparators (7/37)", "result": "12,800-51,000"}, {"measurement": "Group median last titer", "setting": "[1]; SIT group of 37 CRIM-positive IOPD comparators, median time on ERT Week 104", "result": "1,600"}, {"measurement": "Median peak titers", "setting": "[1]; SIT group, IOPD", "result": "25,600 (range, 12,800-51,200)"}, {"measurement": "Median titers (Week 12)", "setting": "[1]; SIT group, IOPD", "result": "12,800"}, {"measurement": "Median titers (Week 24)", "setting": "[1]; SIT group, IOPD", "result": "12,800"}, {"measurement": "Median titers (Week 52)", "setting": "[1]; SIT group, IOPD", "result": "3,200"}, {"measurement": "Seroconversion week (median time to seroconversion)", "setting": "[1]; SIT group, IOPD", "result": 4, "unit": "weeks"}, {"measurement": "Percent of patients in SIT group", "setting": "[1]; SIT: titers >=12,800 and <51,200 within first year of ERT, IOPD", "result": 18.9, "unit": "%"}, {"measurement": "Geometric mean titer, maximum", "setting": "[2]; LOPD, Week 44", "result": "2,925"}, {"measurement": "Geometric mean titer, last", "setting": "[2]; LOPD, Week 78", "result": "1,607"}, {"measurement": "Median last titer", "setting": "[2]; LOPD, Week 78", "result": "1,600"}, {"measurement": "Median peak titer", "setting": "[2]; LOPD, median time 12 weeks of alglucosidase alfa therapy", "result": "6,400"}, {"measurement": "Peak IgG titer quartile", "setting": "[2]; first quartile (n=17)", "result": "200-1,600"}, {"measurement": "Peak IgG titer quartile", "setting": "[2]; fourth quartile (n=14)", "result": "25,600-819,200"}, {"measurement": "Peak IgG titer quartile", "setting": "[2]; second quartile (n=12)", "result": "3,200"}, {"measurement": "Peak IgG titer quartile", "setting": "[2]; third quartile (n=16)", "result": "6,400-12,800"}, {"measurement": "Highest antibody titer of any patient", "setting": "[3]", "result": "≤ 25,600"}, {"measurement": "Percent of patients with high antibody titers", "setting": "[4]; CRIM-positive IOPD, 9 of 23, Banugaria et al. (2011)", "result": 39, "unit": "%"}, {"measurement": "Percent of patients developing HSAT", "setting": "[4]; CRIM-positive patients with IOPD", "result": "~40", "unit": "%"}, {"measurement": "Percent of patients developing HSAT", "setting": "[4]; patients with LOPD", "result": 10, "unit": "%"}]}]}
